Assay results taken from ChEMBL document CHEMBL1201862, “PubChem BioAssay data set” (2004).
Active and inactive are the calls of the source.

Experiments:
Saccharomyces cerevisiae = experiment: NALP1 inhibitor project selectivity study, Caspase-1/ASC signal blockade IC50 in S. cerevisiae (AID 488863); assay type: functional, organism-based
[1] = molecular target: NACHT, LRR and PYD domains-containing protein 1 (Homo sapiens, UniProt Q9C000); experiment: NALP1 inhibitors in yeast, dose response, luminescent (AID 488860); assay type: functional
Hexokinase = Hexokinase (Trypanosoma brucei, UniProt Q38C41); experiment: Confirmation assay for inhibitors of Trypanosoma brucei hexokinase 1-Analogue-first series. [Related pubchem assays (depositor defined):AID1430, AID1632, AID2516, AID2560, AID2579, AID2600, AID449725, AID492951]; assay type: functional
Coagulation factor XII = molecular target: T1, Coagulation factor XII (Homo sapiens, UniProt P00748); experiment: FXIIa inhibitor potency, concentration-response, biochemical (AID 716); assay type: functional
T1 sequence (P00748 whole entry): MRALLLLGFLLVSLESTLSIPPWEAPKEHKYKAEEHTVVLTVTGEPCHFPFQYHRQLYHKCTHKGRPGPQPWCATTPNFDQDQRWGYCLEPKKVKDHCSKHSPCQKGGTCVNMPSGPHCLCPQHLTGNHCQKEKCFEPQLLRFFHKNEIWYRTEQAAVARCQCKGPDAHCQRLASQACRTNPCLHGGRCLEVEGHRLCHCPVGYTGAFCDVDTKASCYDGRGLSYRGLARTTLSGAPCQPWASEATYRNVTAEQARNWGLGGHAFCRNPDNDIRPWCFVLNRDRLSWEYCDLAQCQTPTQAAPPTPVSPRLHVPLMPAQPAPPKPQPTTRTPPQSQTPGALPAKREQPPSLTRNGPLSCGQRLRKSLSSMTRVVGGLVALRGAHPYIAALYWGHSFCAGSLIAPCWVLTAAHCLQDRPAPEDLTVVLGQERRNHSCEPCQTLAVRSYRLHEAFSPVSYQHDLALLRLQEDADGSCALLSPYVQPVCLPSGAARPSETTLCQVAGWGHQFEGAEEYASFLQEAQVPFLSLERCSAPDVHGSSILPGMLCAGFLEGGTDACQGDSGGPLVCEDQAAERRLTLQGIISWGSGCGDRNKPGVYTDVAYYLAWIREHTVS

[2] = molecular target: T2, Short transient receptor potential channel 4 (Mus musculus, UniProt Q9QUQ5); experiment: TRPC4 positive allosteric modulators, dose response, cell-based, HEK293 TRPC4/mu-opioid, Fluo-4 calcium, EC20 DAMGO (AID 434941); assay type: functional
T2 sequence (Q9QUQ5 whole entry): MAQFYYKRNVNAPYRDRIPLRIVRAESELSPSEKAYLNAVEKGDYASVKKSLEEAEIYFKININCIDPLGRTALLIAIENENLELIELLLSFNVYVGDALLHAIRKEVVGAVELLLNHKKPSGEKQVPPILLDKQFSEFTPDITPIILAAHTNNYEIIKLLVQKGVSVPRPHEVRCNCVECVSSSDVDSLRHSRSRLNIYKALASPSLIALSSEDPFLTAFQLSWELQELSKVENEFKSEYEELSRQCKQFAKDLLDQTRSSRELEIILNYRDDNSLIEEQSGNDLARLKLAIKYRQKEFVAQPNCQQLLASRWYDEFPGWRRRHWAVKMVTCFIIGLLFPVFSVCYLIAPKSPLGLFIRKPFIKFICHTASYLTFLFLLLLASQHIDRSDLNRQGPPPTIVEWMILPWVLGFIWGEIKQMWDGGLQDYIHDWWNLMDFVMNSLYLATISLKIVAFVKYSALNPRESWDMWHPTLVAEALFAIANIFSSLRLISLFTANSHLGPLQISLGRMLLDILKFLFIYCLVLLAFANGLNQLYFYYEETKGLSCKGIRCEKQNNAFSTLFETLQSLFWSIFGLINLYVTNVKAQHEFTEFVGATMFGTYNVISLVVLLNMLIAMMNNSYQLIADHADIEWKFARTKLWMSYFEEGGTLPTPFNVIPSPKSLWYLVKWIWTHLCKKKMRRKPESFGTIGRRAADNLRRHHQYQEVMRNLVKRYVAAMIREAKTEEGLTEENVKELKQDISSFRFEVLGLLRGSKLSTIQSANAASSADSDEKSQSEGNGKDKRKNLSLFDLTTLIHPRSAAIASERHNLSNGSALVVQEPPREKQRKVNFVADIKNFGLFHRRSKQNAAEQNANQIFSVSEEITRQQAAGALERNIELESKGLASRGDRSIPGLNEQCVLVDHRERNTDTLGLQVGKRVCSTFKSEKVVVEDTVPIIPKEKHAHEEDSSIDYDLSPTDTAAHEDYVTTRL

[3] = tested on: Streptococcus sp. 'group A'; experiment: growth inhibition of control SK(-) GAS strain, dose response, counter-screen for streptokinase expression inhibitor project, luminescence, kanamycin, BacTiterGlo, confirmation (AID 1900); assay type: functional, organism-based
Streptokinase A = molecular target: T3, Streptokinase A (Streptococcus pyogenes serotype M1, UniProt P10520); experiment: S. pyogenes streptokinase expression inhibitors, potency, dose response, plasminogen activation absorbance, OD405 (AID 1914); assay type: functional, Streptococcus pyogenes M1 GAS;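 further: secreted streptokinase activity via plasminogen activation per viability signal from cell pellet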
T3 sequence (P10520 whole entry): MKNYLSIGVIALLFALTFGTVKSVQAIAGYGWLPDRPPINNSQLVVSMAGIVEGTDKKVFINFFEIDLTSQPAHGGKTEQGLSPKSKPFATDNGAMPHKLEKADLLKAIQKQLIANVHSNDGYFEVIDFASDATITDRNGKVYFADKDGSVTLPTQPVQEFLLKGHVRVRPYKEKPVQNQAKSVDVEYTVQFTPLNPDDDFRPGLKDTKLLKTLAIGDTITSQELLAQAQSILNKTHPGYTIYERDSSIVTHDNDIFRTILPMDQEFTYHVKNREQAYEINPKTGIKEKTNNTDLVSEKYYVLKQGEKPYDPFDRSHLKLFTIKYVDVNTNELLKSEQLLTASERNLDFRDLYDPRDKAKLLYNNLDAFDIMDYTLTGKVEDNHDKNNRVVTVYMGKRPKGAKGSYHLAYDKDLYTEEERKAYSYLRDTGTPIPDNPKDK

Streptococcus = experiment: Group A Streptococcus viability loss, dose response, counter-screen for streptokinase expression inhibitor project, luminescence, BacTiterGlo (AID 1915); assay type: functional, organism-based;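 further: potency for reduction of bacterial viability or growth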
Trypsin = Trypsin (Sus scrofa, UniProt P00761); experiment: porcine trypsin inhibitors, dose response, selectivity assay for Rce1 protease inhibitor project, biochemical, quenched peptide fluorescence, cherry-pick (AID 488789)
CAAX prenyl protease 2 = molecular target: T4, CAAX prenyl protease 2 (Saccharomyces cerevisiae S288c, UniProt Q03530); assay type: biochemical
T4 sequence (Q03530 whole entry): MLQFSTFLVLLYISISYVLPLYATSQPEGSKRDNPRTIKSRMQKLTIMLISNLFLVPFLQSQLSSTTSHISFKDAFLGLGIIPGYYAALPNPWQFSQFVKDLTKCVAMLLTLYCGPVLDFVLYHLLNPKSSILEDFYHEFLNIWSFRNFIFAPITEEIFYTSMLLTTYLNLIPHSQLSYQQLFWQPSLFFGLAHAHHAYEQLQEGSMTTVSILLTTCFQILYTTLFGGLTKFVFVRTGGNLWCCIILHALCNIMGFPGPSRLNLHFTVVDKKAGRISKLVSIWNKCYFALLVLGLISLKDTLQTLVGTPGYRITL

[4] = A549 cell cytotoxicity, dose response, cytotoxicity control, plate reader, cherry-pick, antagonist series (AID 743412); assay type: functional, cell-based
[5] = HepG2 cell cytotoxicity, dose response, cytotoxicity control, plate reader, cherry-pick, antagonist series (AID 743416); assay type: functional, cell-based
[6] = LGR2 antagonists, dose response, cell-based, HEK293, CRE-luciferase reporter, cherry pick, set 2 (AID 743343); assay type: functional;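 further: transfected cells were stimulated with diluted bursicon conditioned medium after compound addition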
[7] = MC4R antagonists, dose response, counter-screen for LGR2 antagonist project, cell-based, plate reader, cherry pick (AID 743444); assay type: functional;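 further: transfected HEK 293 cells stimulated with alpha-MSH peptide; potency of inhibitors of the alpha-MSH evoked signal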
[8] = HEK293 cell cytotoxicity, dose response, cytotoxicity control, plate reader, cherry-picked samples (AID 743446); assay type: functional, cell-based
[9] = molecular target: 1-acylglycerol-3-phosphate O-acyltransferase ABHD5/Perilipin-5 (Homo sapiens, UniProt Q00G26+Q8WTS1); experiment: Luminescence-based biochemical high throughput dose response assay for inhibitors of the interaction of the lipase co-activator protein, abhydrolase domain containing 5 (ABHD5) with perilipin-5 (MLDP; PLIN5) (2K validation set). [Related pubchem assays (depositor defined):AID493035, AID493241]
Perilipin-1/ABHD5 = Perilipin-1/ABHD5 (Homo sapiens, UniProt O60240+Q8WTS1); experiment: Luminescence-based biochemical high throughput dose response assay for inhibitors of the interaction of the lipase co-activator protein, abhydrolase domain containing 5 (ABHD5) with perilipin-1 (PLIN1) (2K validation set). [Related pubchem assays (depositor defined):AID493027, AID493057]
Caspase-3 = molecular target: T5, Caspase-3 (Homo sapiens, UniProt P42574); experiment: procaspase-3 activators, dose response, biochemical, absorbance (AID 489014)
T5 sequence (P42574 whole entry): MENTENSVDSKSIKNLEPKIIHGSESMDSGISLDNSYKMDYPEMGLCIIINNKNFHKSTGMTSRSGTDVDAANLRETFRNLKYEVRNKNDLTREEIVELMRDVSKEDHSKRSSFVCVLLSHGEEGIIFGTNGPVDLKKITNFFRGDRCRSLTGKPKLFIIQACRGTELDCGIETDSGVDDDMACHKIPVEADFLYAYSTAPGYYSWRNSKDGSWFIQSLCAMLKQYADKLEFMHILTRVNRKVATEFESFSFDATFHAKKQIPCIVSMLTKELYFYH

Caspase-7 = molecular target: T6, Caspase-7 (Homo sapiens, UniProt P55210); experiment: procaspase-7 activators, dose response, counter-screen for procaspase-3 activator project, biochemical, absorbance (AID 489013)
T6 sequence (P55210 whole entry): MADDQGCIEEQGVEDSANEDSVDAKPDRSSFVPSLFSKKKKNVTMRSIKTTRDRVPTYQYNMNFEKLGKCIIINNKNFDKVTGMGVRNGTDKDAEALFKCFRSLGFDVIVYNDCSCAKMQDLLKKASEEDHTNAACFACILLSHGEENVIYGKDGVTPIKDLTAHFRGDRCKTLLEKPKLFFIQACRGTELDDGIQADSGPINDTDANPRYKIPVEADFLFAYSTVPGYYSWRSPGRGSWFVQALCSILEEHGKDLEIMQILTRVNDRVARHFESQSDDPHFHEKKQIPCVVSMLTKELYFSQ

Sequence of Perilipin-1/ABHD5 (Q8WTS1 whole entry, the tested form may be a part): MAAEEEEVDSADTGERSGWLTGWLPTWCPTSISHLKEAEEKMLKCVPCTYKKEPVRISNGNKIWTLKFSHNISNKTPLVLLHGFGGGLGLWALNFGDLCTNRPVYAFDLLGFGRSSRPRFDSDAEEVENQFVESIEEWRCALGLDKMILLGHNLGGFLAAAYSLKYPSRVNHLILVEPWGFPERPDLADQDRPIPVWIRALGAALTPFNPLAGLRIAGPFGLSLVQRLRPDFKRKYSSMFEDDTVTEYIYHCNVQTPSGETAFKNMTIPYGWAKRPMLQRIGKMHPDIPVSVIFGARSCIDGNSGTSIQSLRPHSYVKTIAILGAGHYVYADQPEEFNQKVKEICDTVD
Sequence of Perilipin-1/ABHD5 (O60240 whole entry, the tested form may be a part): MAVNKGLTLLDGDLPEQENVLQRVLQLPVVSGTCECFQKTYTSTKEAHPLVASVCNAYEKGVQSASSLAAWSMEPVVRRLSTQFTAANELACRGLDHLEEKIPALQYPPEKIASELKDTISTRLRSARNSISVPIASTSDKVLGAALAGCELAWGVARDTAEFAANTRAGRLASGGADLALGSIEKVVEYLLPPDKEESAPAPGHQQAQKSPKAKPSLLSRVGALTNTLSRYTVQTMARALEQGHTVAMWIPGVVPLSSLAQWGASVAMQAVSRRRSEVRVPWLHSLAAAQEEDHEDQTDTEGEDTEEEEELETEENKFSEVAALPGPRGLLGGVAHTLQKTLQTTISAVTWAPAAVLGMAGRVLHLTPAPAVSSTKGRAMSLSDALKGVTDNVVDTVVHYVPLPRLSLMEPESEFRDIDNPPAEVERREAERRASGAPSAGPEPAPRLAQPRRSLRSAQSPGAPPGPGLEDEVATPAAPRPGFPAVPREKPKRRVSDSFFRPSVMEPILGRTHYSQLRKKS
Sequence of 1-acylglycerol-3-phosphate O-acyltransferase ABHD5/Perilipin-5 (Q00G26 whole entry, the tested form may be a part): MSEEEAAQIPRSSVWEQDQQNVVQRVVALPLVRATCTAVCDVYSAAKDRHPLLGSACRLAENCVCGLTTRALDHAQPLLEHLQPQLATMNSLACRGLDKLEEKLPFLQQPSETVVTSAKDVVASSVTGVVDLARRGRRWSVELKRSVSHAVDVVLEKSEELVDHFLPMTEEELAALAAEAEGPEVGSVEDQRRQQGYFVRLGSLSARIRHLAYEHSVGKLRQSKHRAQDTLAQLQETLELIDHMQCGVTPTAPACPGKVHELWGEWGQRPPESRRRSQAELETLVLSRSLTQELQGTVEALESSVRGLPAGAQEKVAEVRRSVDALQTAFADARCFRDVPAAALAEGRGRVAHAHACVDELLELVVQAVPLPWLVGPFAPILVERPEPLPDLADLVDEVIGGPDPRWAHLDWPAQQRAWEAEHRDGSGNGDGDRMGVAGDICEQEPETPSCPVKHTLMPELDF
Sequence of 1-acylglycerol-3-phosphate O-acyltransferase ABHD5/Perilipin-5 (Q8WTS1 whole entry, the tested form may be a part): as the sequence (Q8WTS1 whole entry, the tested form may be a part) above
Sequence of Trypsin (P00761 whole entry): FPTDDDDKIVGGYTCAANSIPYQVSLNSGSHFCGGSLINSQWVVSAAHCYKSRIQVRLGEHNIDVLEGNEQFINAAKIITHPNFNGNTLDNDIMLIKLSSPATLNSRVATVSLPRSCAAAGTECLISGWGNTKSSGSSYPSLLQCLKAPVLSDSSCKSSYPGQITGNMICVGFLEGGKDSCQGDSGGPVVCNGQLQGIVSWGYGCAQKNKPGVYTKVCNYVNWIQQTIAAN
Sequence of NACHT, LRR and PYD domains-containing protein 1 (Q9C000 1-1212 limits assumed): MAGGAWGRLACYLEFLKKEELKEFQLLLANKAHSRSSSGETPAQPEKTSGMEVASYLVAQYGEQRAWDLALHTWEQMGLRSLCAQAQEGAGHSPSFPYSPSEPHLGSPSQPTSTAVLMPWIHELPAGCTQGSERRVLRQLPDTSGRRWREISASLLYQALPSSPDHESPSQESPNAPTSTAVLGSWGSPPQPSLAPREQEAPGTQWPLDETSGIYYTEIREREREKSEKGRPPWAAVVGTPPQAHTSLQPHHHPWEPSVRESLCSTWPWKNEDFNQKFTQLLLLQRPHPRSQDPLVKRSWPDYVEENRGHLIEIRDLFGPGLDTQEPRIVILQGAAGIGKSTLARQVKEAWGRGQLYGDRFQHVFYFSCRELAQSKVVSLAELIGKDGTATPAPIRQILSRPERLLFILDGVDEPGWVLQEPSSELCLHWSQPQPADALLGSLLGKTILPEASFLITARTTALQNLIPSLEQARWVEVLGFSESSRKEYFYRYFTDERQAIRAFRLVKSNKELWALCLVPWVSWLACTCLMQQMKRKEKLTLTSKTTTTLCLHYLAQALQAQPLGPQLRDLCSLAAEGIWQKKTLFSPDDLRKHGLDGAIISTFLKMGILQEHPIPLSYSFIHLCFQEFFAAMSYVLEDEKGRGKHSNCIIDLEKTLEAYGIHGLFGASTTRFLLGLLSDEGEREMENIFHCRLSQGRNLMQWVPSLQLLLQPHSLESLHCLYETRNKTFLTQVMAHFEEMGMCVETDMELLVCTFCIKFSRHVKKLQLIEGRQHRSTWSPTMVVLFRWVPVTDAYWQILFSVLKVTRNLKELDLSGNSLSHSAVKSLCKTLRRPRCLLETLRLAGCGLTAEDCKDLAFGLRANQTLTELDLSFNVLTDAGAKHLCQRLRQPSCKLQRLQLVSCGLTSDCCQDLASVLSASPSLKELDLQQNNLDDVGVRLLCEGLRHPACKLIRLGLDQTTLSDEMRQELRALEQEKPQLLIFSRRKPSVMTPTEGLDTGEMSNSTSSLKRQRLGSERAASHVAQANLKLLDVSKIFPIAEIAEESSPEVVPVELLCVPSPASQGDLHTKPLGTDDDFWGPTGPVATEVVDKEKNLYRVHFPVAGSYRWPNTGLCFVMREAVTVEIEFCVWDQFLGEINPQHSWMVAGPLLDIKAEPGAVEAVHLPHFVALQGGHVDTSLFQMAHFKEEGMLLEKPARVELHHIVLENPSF
Sequence of NACHT, LRR and PYD domains-containing protein 1 (Q9C000 1213-1473 limits assumed): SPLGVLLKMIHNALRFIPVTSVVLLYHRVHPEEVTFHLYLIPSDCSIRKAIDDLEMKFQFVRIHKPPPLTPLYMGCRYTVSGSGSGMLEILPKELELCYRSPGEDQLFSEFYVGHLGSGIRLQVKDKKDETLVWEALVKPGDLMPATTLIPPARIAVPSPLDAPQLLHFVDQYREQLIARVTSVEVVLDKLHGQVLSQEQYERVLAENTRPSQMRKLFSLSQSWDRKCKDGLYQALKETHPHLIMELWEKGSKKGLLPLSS
Sequence of Hexokinase (Q38C41 whole entry): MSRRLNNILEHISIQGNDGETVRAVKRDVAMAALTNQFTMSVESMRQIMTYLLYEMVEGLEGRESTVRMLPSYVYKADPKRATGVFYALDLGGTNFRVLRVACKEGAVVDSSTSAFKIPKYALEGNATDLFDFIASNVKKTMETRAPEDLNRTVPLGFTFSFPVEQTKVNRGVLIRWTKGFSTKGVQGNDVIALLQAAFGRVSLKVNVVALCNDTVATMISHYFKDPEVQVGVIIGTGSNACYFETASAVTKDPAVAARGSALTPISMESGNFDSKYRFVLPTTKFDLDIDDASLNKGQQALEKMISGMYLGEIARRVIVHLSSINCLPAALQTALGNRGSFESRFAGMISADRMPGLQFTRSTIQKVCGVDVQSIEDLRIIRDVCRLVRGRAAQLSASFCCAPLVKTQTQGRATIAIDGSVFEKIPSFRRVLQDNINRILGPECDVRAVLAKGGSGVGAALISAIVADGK

CCCOc1ccccc1NC(=O)/C=C/C(N)=O
IC50 (Saccharomyces cerevisiae): 5.33 µM (active)
IC50 [1]: 8.5 µM (active)

O=C(Cn1sc2cc(F)ccc2c1=O)Nc1ccccc1
IC50 (Hexokinase): 4.34 µM (active)

COc1ccc(C(=O)c2c(C)oc3ccc(O)c(CN4CCOCC4)c23)cc1
IC50 (Coagulation factor XII): > 50 µM (inactive)

Cc1ccc(Cn2c(=N)c(C(=O)NC3CCCC3)cc3c(=O)n4ccccc4nc32)cc1
EC50 [2]: 2.11 µM (active)

CCC(C)Sc1cc(-c2nc3ccccn3c2NC2CCCCC2)ccc1OC (stereo unspecified)
EC50 [3]: 2.28 µM (active)
EC50 (Streptokinase A): 15 µM (active)
EC50 (Streptococcus): 7.68 µM (active)
AC50 (Trypsin): 2.69 µM (active)
AC50 (CAAX prenyl protease 2): 7.58 µM (active)
AC50 [4]: 15.7 µM (active)
AC50 [5]: 18.2 µM (active)
AC50 [6]: 2.82 µM (active)
AC50 [7]: 3.11 µM (active)
AC50 [8]: 21.1 µM (active)

COc1ccc(O)c(C(=O)/C=C/c2cc3ccccc3o2)c1
IC50 [9]: 4.85 µM (active)
IC50 (Perilipin-1/ABHD5): 4.8 µM (active)

O=C1C2C(c3ccccc3)=NN(c3ccccc3)C2C(=O)N1c1ccccc1 (stereo unspecified)
EC50 [3]: 1.02 µM (active)
EC50 (Streptococcus): 5.11 µM (active)
EC50 (Caspase-3): > 85.3 µM (inactive)
EC50 (Caspase-7): > 85.3 µM (inactive)
